According to US20260176284A1, “Compounds with Anti-KRAS Mutated Tumor Activity” (Trasveda Ltd., priority 2022, published 2026):

Experiments:
[1] = tested on: GP2D cells; assay: 3D proliferation inhibition of KRAS G12D mutated tumor cells, GP2D; assay type: cell-based, human; settings: Homo sapiens, GP2d, 3D methylcellulose culture, CTG, 120 hours
Text: (§1) This experiment evaluated and verified the proliferation inhibitory activity of the representative compounds of the present invention against the following five strains of KRAS-related tumor cells.
(§2) The following materials, reagents and instruments were used in this experiment: Five strains of cells were all from Nanjing Kebai Biotechnology Co., Ltd. (GP2D, CBP60010; HPAC, CBP60539; AsPC-1, CBP60546; KP-4, CBP60541; Panc 04.03, CBP60683); DMEM (Gibco, 11965092); RPMI-1640 (Gibco, SH30809.01); HPAC complete medium (Cobioer, CBP60539M); Fetal bovine serum FBS (Gibco, 10091-148); Insulin (Gibco, 41400045); Methylcellulose (methylcellulose, Sigma, 9004-67-5); Phosphate-buffered saline DPBS (Comning, 21-031-CVC); CellTiter-Glo® Luminescent Cell Viability Assay (Promega, Cat #G7573); 96-well clear flat-bottom black-wall plate (Corning, 3603); EnVision multilabel plate reader (PerkinElmer #2105); CO2 incubator (Thermo Scientific, Model 3 71 Series).
(§3) A sterilized 1% methylcellulose 3D culture medium was prepared in advance. The cells in the logarithmic growth phase were harvested, and a Countstar automatic cell counter based on the principle of the classic trypan blue staining method was used for cell counting and detecting cell viability to ensure that the cell viability was above 90%. The cell concentrations of GP2D, HPAC, AsPC-1, KP-f4, and Panc 04.03 were adjusted so that the final concentration of methylcellulose was 0.65%, and the mixture was allowed to stand after being well-mixed. After there were no visible air bubbles in the cell suspension, 80 μL of the cell suspension was added to each well of a 96-well plate, with a total of 1000-2000 cells. The cells in the 96-well plate were cultured overnight at 37° C., 5% CO2, and 95% humidity.
(§4) Drug Preparation for IC50 Determination: First, a 10 mM DMSO stock solution of each compound was prepared. For the first dilution, using DMSO as the solvent, each compound was first diluted to 5 mM and then serially diluted 3-fold to obtain 9 concentrations, preparing DMSO solutions of each compound at different concentrations. For the second dilution, a 5-fold diluted solution of each compound was prepared by a 1:100 dilution, using the complete medium as the solvent. […]
(§5) The cells in the 96-well plate with the added drugs were further cultured at 37° C. and 5% CO2 for 120 hours, and then a CTG analysis was performed. […] The cell plate was placed at room temperature for 20 minutes to stabilize the luminescence signal. The luminescence value was read, and the data were collected.
(§6) The data were analyzed using GraphPad Prism 9.0 software. Non-linear S-curve regression was used to fit the data to obtain the dose-response curve, and the IC50 value (nM) was calculated accordingly. […]

[2] = tested on: KP-4 cells; assay: 3D proliferation inhibition of KRAS G12D mutated tumor cells, KP-4; assay type: cell-based; settings: Homo sapiens, KP-4, 3D methylcellulose culture, CTG, 120 hours
Text: as §1, §2, §3, §4, §5, §6

[3] = tested on: KRAS G12D mutated AGS human gastric adenocarcinoma cells; assay: Proliferation inhibition of KRAS G12D mutant AGS cells, another experiment with similar protocol (includes MRTX1133); assay type: cell-based; settings: Homo sapiens
Method: In another experiment, using a protocol similar to the one described above, the inhibitory activity of some representative compounds of the present invention against KRAS G12D mutated AGS human gastric adenocarcinoma cells was determined.
The synthesis of compound MRTX1133 was performed according to the method described in J. Med. Chem. 2022, 65, 4, 3123-3133.

[4] = tested on: Panc 04.03 cells; assay: 3D proliferation inhibition of KRAS G12D mutated tumor cells, Panc 04.03; assay type: cell-based; settings: Homo sapiens, Panc 04.03, 3D methylcellulose culture, CTG, 120 hours
Text: as §1, §2, §3, §4, §5, §6

[5] = tested on: human pancreatic cancer cells HPAC (carrying KRas G12D mutant protein); assay: In vivo pharmacodynamics, subcutaneous xenograft of human pancreatic cancer cells HPAC; settings: NOD/SCID mice, 50 mpk, PO
Method: The following materials were used in this experiment: NOD/SCID mice, 6-8 weeks old, female, Jiangsu Ji Cai Yao Kang Biotechnology Co., Ltd.; HPAC cells (carrying KRas G12D mutant protein, ATCC); Captisol (Wuhan Fengyao Tonghui Chemical Products Co., Ltd., Cas #182410-00-0); Sodium acetate (aladdin); MC (sigma, 9004-67-5).
The experiment was carried out as follows: Female NOD/SCID mice aged 6-8 weeks were subcutaneously inoculated with 1-10^7 HPAC cells on the right posterior side of the back, with an inoculation volume of 0.1 mL. When the tumors grew to an average volume of 150 mm^3, the mice were randomly grouped for administration according to the tumor size and body weight. The day of administration was regarded as day 0. The administration was carried out once a day. The test compound was administered by tail vein injection or gavage, with 5 mice in each group at a dose of 10 mg/kg. The control group was administered with an equal volume of the solvent control by tail vein injection or gavage.
During the experiment, the tumor volume and body weight were measured twice a week. The formula for calculating the tumor volume was: Tumor volume (mm^3)=0.5×(tumor major axis×tumor minor axis^2). The average tumor inhibition rate TGI %=[(average tumor volume of the control group−average initial tumor volume of the control group)−(average tumor volume of the administration group−average initial tumor volume of the administration group)]/(average tumor volume of the control group−average initial tumor volume of the control group).

[6] = tested on: HPAC cells; assay: 3D proliferation inhibition of KRAS G12D mutated tumor cells, HPAC; assay type: cell-based, human; settings: Homo sapiens, HPAC, 3D methylcellulose culture, CTG, 120 hours
Text: as §1, §2, §3, §4, §5, §6

[7] = tested on: AsPC-1 cells; assay: 3D proliferation inhibition of KRAS G12D mutated tumor cells, AsPC-1; assay type: cell-based; settings: Homo sapiens, ASPC1, 3D methylcellulose culture, CTG, 120 hours
Text: as §1, §2
as §3, with “After there were no visible air bubbles in the cell suspension, 80 μL of the cell suspension was added to each well of a 96-well plate, with a total of 1000-2000 cells. The cells in the 96-well plate were cultured overnight at 37° C., 5% CO2, and 95% humidity.” left out
as §5, §6

[8] = Mouse pharmacokinetics (IV and PO); assay type: in vivo; settings: 10 mg/kg, male CD-1 mice, PO (gavage), 1 mg/mL at 10 mL/kg, plasma
Method: The pharmacokinetic properties of the compounds of the present invention were evaluated through a mouse pharmacokinetic experiment.
Male CD-1 mice, aged 6-8 weeks old, were purchased from Zhejiang Vital River Laboratory Animal Co., Ltd.
IV administration group: The compound was formulated into a sodium acetate buffer solution (10 mM sodium acetate solution, adjusted to pH 4.0 with acetic acid) containing 20% Captisol (sulfobutyl β-cyclodextrin) so that the final concentration of each compound was 0.6 mg/mL. The drug formulation was injected into the tail vein of CD-1 mice at an injection volume of 5 mL/kg. After administration, blood samples were collected from the submandibular vein or by other appropriate methods at 5 min, 15 min, 30 min, 1 h, 2 h, 4 h, 6 h, 8 h, and 24 h. The blood samples were centrifuged at a low temperature for 6 minutes, and the plasma was collected and stored at −80° C. for testing. The PO administration group formulated the compound into a solvent of 0.5% Tween 80+99.5% (0.5% MC (400 cp)) or 5% DMSO+95% (0.5% MC (400 cp)) so that the final concentration of each compound was 1 mg/mL. The drug formulation was administered to CD-1 mice by gavage at a volume of 10 mL/kg. After administration, blood samples were collected from the submandibular vein or by other appropriate methods at 15 min, 30 min, 1 h, 2 h, 4 h, 6 h, 8 h, and 24 h. The blood samples were centrifuged at a low temperature for 6 minutes, and the plasma was collected and stored at −80° C. for testing.
10 μL of the plasma sample was taken, and 200 μL of methanol containing an internal standard was added as a precipitating agent to precipitate plasma proteins and extract the compounds to be tested in the plasma. After centrifugation at a low temperature, 10 μL of the supernatant was injected, and the drug blood concentration was analyzed by LC-MS/MS. The pharmacokinetic parameters were calculated using Winnonlin based on the drug concentration data at different time points.

[9] = tested on: KRAS-G12D mutated human colon carcinoma cells GP2d; assay: Antitumor effect, subcutaneous xenograft of KRAS-G12D mutated human colon carcinoma cells GP2d; assay type: in vivo; settings: BALB/c nude mice, 10 mg/kg, gavage, twice a day
Method: GP2d cells were purchased from Nanjing Kebai Biotechnology Co., Ltd. BALB/c nude mice, female, were purchased from Jiangsu GemPharmatech LLC. GP2d cells were cultured in culture medium containing DMEM and 10% FBS. The cells in the logarithmic growth phase were collected and resuspended in PBS to an appropriate concentration for subcutaneous tumor inoculation in mice. The experimental mice were subcutaneously inoculated on the right posterior side of the back. The inoculation dose of GP2d cells was 1×10^7 cells per mouse, and the cells were resuspended in a 1:1 mixture of PBS and Matrigel (the inoculation volume was 0.1 mL). When the average tumor volume grew to 150 mm^3, the mice were randomly grouped for administration according to the tumor size and body weight. Administration was started immediately after grouping, and the day of administration was regarded as day 0. The administration was carried out twice a day by gavage, at a dose of 10 mg/kg or a solvent control (0.5% Tween 80+99.5% of (0.5% MC (400 cp))). During the experiment, the body weight of the mice and the size of the tumors were measured twice a week.
The formula for calculating the tumor size: Tumor volume (mm^3)=0.5×(long diameter of tumor×(short diameter of tumor)^2).
Relative tumor inhibition rate TGI (%): TGI %=[1−(average tumor volume at the end of administration of the treatment group−average tumor volume at the beginning of administration of the treatment group)/(average tumor volume at the end of administration of the vehicle control group −average tumor volume at the beginning of administration of the vehicle control group)]×100%.

SMILES | IC50 [1] | IC50 [2] | IC50 [3] | IC50 [4] | Tumor volume (mm3) (Day 20) ([5]; BID × 21) | TGI (%) ([5]; BID × 21, Day 20) | IC50 [6] | IC50 [7] | AUC(0-inf) [8] | AUC(0-t) [8] | half-life [8] | Tumor volume (mm3) (Day 21) [9] | TGI (%) ([9]; Day 21)
C#Cc1c(F)ccc2cc(O)cc(-c3ncc4c(N5C[C@H]6CC[C@@H](C5)N6)nc(OC[C@]5(C)CN(C)CC/C5=C\F)nc4c3F)c12 [Example 103, 4-(4-((1R,5S)-3,8-diazabicyclo[3.2.1]octan-3-yl)-8-fluoro-2-(((S,E)-4-(fluoromethylene)-1,3-dimethylpiperidin-3-yl)methoxy)pyrido[4,3-d]pyrimidin-7-yl)-5-ethynyl-6-fluoronaphthalen-2-ol] | 0.42 nM | 6.92 nM | 4 nM | 2.12 nM | 77 mm3 | 112% | 1.44 nM | 2.09 nM | 704 ng·h/mL | 653 ng·h/mL | 8.15 h |  | 
[2H]C([2H])([2H])N1CC[C@H](C(F)F)[C@](C)(C([2H])([2H])Oc2nc(N3CC4CCC(C3)N4)c3cc(C(F)(F)F)c(-c4cccc5sc(N)c(C#N)c45)c(F)c3n2)C1 (single isomer, unassigned) [Example 321-1] | 0.43 nM | 4.74 nM |  | 1.36 nM |  |  | 5.38 nM | 1.38 nM |  |  |  | 70 mm3 | 109%
